Source: PMC9848257, “Design and synthesis of novel rigid dibenzo[b,f]azepines through ring closure technique as promising anticancer candidates against leukaemia and acting as selective topoisomerase II inhibitors and DNA intercalators” (Journal of Enzyme Inhibition and Medicinal Chemistry, 2023)

Legend:
TK-10 = assay: NCI-60 one-dose screen, TK-10; assay type: cell-based; conditions: Homo sapiens; TK-10, renal cancer; single dose 10 μM; read-out: Growth inhibition %
Description: (§1) Anti-proliferative effects of the counterparts 4a–g and 5a–g were screened against 60 human cancer cell lines, following the Developmental Therapeutics Program protocol, National Cancer Institute[35].
(§2) The anti-tumour activity of the fourteen synthesised congeners was investigated at the NCI against a panel of 60 cancer cell lines (NCI-60 Cell One-Dose Screen). The tested dibenzo[b,f]azepine derivatives were screened at a single dose level (10 μM), Table 1.

SK-MEL-28 = assay: NCI-60 one-dose screen, SK-MEL-28; assay type: cell-based; conditions: Homo sapiens; SK-MEL-28, melanoma; single dose 10 μM; read-out: Growth inhibition %
Description: as §1, §2

NCI-H322M = assay: NCI-60 one-dose screen, NCI-H322M; assay type: cell-based; conditions: Homo sapiens, non-small cell lung cancer, single dose 10 μM, read-out: Growth inhibition %
Description: as §1, §2

SK-MEL-2 = assay: NCI-60 one-dose screen, SK-MEL-2; assay type: cell-based; conditions: Homo sapiens; SK-MEL-2, melanoma; single dose 10 μM; read-out: Growth inhibition %
Description: as §1, §2

topoisomerase II = assay: Topoisomerase II inhibitory assay; assay type: biochemical; conditions: for IC50: in vitro, doxorubicin co-assayed as reference; for Percentage of topoisomerase II inhibition: at the concentration of 100 µM (Figure 3A)
Description: Therefore, following the procedure reported by Patra et al., the topoisomerase II activity was evaluated.

M14 = assay: NCI-60 one-dose screen, M14; assay type: cell-based; conditions: Homo sapiens; M14, melanoma; single dose 10 μM; read-out: Growth inhibition %
Description: as §1, §2

PC-3 = assay: NCI-60 one-dose screen, PC-3; assay type: cell-based; conditions: Homo sapiens; PC-3, prostate cancer; single dose 10 μM; read-out: Growth inhibition %
Description: as §1, §2

NCI/ADR-RES = assay: NCI-60 one-dose screen, NCI/ADR-RES; assay type: cell-based; conditions: Homo sapiens, ovarian cancer, single dose 10 μM, read-out: Growth inhibition %
Description: as §1, §2

MDA-MB-468 = assay: NCI-60 one-dose screen, MDA-MB-468; assay type: cell-based; conditions: Homo sapiens; MDA-MB-468, breast cancer; single dose 10 μM; read-out: Growth inhibition %
Description: as §1, §2

SF-295 = assay: NCI-60 one-dose screen, SF-295; assay type: cell-based; conditions: Homo sapiens; SF-295, CNS cancer; single dose 10 μM; read-out: Growth inhibition %
Description: as §1, §2

UO-31 = assay: NCI-60 one-dose screen, UO-31; assay type: cell-based; conditions: Homo sapiens; UO-31, renal cancer; single dose 10 μM; read-out: Growth inhibition %
Description: as §1, §2

K-562 = assay: NCI-60 one-dose screen, K-562; assay type: cell-based; conditions: Homo sapiens, K562; K-562, leukaemia; single dose 10 μM; read-out: Growth inhibition %
Description: as §1, §2

MDA-MB-231-ATCC = assay: NCI-60 one-dose screen, MDA-MB-231-ATCC; assay type: cell-based; conditions: Homo sapiens, breast cancer, single dose 10 μM, read-out: Growth inhibition %
Description: as §1, §2

RXF 393 = assay: NCI-60 one-dose screen, RXF 393; assay type: cell-based; conditions: Homo sapiens; RXF 393, renal cancer; single dose 10 μM; read-out: Growth inhibition %
Description: as §1, §2

MCF-7 = assay: NCI-60 one-dose screen, MCF-7; assay type: cell-based; conditions: Homo sapiens, MCF7; MCF-7, breast cancer; single dose 10 μM; read-out: Growth inhibition %
Description: as §1, §2

HCT-116 = assay: NCI-60 one-dose screen, HCT-116; assay type: cell-based; conditions: Homo sapiens; HCT-116, colon cancer; single dose 10 μM; read-out: Growth inhibition %
Description: as §1, §2

786-0 = assay: NCI-60 one-dose screen, 786-0; assay type: cell-based; conditions: Homo sapiens; 786-0, renal cancer; single dose 10 μM; read-out: Growth inhibition %
Description: as §1, §2

MOLT-4 = assay: NCI-60 one-dose screen, MOLT-4; assay type: cell-based; conditions: Homo sapiens; MOLT-4, leukaemia; single dose 10 μM; read-out: Growth inhibition %
Description: as §1, §2

SW-620 = assay: NCI-60 one-dose screen, SW-620; assay type: cell-based; conditions: Homo sapiens; SW-620, colon cancer; single dose 10 μM; read-out: Growth inhibition %
Description: as §1, §2

SF-539 = assay: NCI-60 one-dose screen, SF-539; assay type: cell-based; conditions: Homo sapiens; SF-539, CNS cancer; single dose 10 μM; read-out: Growth inhibition %
Description: as §1, §2

OVCAR-5 = assay: NCI-60 one-dose screen, OVCAR-5; assay type: cell-based; conditions: Homo sapiens; OVCAR-5, ovarian cancer; single dose 10 μM; read-out: Growth inhibition %
Description: as §1, §2

SK-OV-3 = assay: NCI-60 one-dose screen, SK-OV-3; assay type: cell-based; conditions: Homo sapiens; SK-OV-3, ovarian cancer; single dose 10 μM; read-out: Growth inhibition %
Description: as §1, §2

NCI-H226 = assay: NCI-60 one-dose screen, NCI-H226; assay type: cell-based; conditions: Homo sapiens; NCI-H226, non-small cell lung cancer; single dose 10 μM; read-out: Growth inhibition %
Description: as §1, §2

IGROV1 = assay: NCI-60 one-dose screen, IGROV1; assay type: cell-based; conditions: Homo sapiens, IGROV-1; IGROV1, ovarian cancer; single dose 10 μM; read-out: Growth inhibition %
Description: as §1, §2

SMILES	inhibition at 10 µM (TK-10)	inhibition at 10 µM (SK-MEL-28)	inhibition at 10 µM (NCI-H322M)	inhibition at 10 µM (SK-MEL-2)	IC50 (topoisomerase II)	inhibition at 10 µM (M14)	inhibition at 10 µM (PC-3)	inhibition at 10 µM (NCI/ADR-RES)	inhibition at 10 µM (MDA-MB-468)	inhibition at 10 µM (SF-295)	inhibition at 10 µM (UO-31)	inhibition at 10 µM (K-562)	inhibition at 10 µM (MDA-MB-231-ATCC)	inhibition at 10 µM (RXF 393)	melting point	inhibition at 10 µM (MCF-7)	inhibition at 10 µM (HCT-116)	inhibition at 10 µM (786-0)	inhibition at 10 µM (MOLT-4)	inhibition at 10 µM (SW-620)	also measured
Brc1ccc(-c2nnc(N3c4ccccc4C=Cc4ccccc43)o2)cc1 [Compound 5b, 2-(4-Bromophenyl)-5-(5H-dibenzo[b,f]azepin-5-yl)-1,3,4-oxadiazole]	< 10%	14.1%	< 10%	< 10%	10.2 µM	< 10%	48.5%	23.4%	17.8%	30.4%	33.5%	54.5%	22.3%	24.9%	185 to 187 °C	30.5%	52.2%	11.3%	35.6%	< 10%	inhibition at 10 µM (SF-539): 17.2%; inhibition at 10 µM (OVCAR-5): < 10%; inhibition at 10 µM (SK-OV-3): < 10%; inhibition at 10 µM (NCI-H226): 28.3%; inhibition at 10 µM (IGROV1): 21.6%
Clc1ccc(-c2nnc(N3c4ccccc4C=Cc4ccccc43)o2)cc1 [Compound 5c, 2-(4-Chlorophenyl)-5-(5H-dibenzo[b,f]azepin-5-yl)-1,3,4-oxadiazole]	< 10%	< 10%	10.5%	< 10%	31.8 µM	< 10%	44.1%	14.5%	16.7%	29.6%	33.8%	54%	19.8%	17.9%	174 to 176 °C	35.6%	47.7%	< 10%	20.4%	< 10%	inhibition at 10 µM (SF-539): < 10%; inhibition at 10 µM (OVCAR-5): < 10%; inhibition at 10 µM (SK-OV-3): < 10%; inhibition at 10 µM (NCI-H226): 27.5%; inhibition at 10 µM (IGROV1): 19.2%
Cc1ccc(-c2nnc(N3c4ccccc4C=Cc4ccccc43)o2)cc1 [Compound 5d, 2-(5 h-Dibenzo[b,f]azepin-5-yl)-5-(p-tolyl)-1,3,4-oxadiazole]	< 10%	< 10%	< 10%	< 10%	16.8 µM	< 10%	41.4%	< 10%	< 10%	22%	< 10%	47.8%	9.21%	< 10%	239 to 241 °C	15.7%	45.8%	< 10%	21%	< 10%	inhibition at 10 µM (SF-539): < 10%; inhibition at 10 µM (OVCAR-5): < 10%; inhibition at 10 µM (SK-OV-3): < 10%; inhibition at 10 µM (NCI-H226): 21.6%; inhibition at 10 µM (IGROV1): < 10%
O=[N+]([O-])c1ccc(-c2nnc(N3c4ccccc4C=Cc4ccccc43)o2)cc1 [Compound 5e, 2-(5 h-Dibenzo[b,f]azepin-5-yl)-5–(4-nitrophenyl)-1,3,4-oxadiazole]	< 10%	< 10%	4.97%	< 10%	6.36 µM	< 10%	24.6%	< 10%	11.4%	< 10%	30.7%	25.3%	15.3%	< 10%	146 to 148 °C	17.4%	< 10%	< 10%	19.4%	< 10%	Percentage of topoisomerase II inhibition (topoisomerase II): 89%; inhibition at 10 µM (SF-539): < 10%; inhibition at 10 µM (OVCAR-5): < 10%; inhibition at 10 µM (SK-OV-3): < 10%; inhibition at 10 µM (NCI-H226): 13.7%; inhibition at 10 µM (IGROV1): < 10%
C1=Cc2ccccc2N(c2nnc(-c3ccc4ccccc4c3)o2)c2ccccc21 [Compound 5f, 2-(5 h-Dibenzo[b,f]azepin-5-yl)-5-(naphthalen-2-yl)-1,3,4-oxadiazole]	20.3%	< 10%	9.52%	< 10%	9.56 µM	< 10%	40.9%	12.1%	11.1%	19.9%	24.7%	34%	< 10%	10.4%	201 to 203 °C	24.4%	27.3%	< 10%	16.3%	< 10%	Percentage of topoisomerase II inhibition (topoisomerase II): 88%; inhibition at 10 µM (SF-539): < 10%; inhibition at 10 µM (OVCAR-5): < 10%; inhibition at 10 µM (SK-OV-3): < 10%; inhibition at 10 µM (NCI-H226): 21.4%; inhibition at 10 µM (IGROV1): 29.1%
